According to paper PMC3773341 (Biology Open, 2013):

What was measured:
[1] = target: T1, BK channel (large-conductance Ca2+-activated K+ channel, BKCa, KCa1.1) (Homo sapiens, UniProt Q12791); experiment: whole-cell patch clamp of T-type-activated BK current in LNCaP-α1H cells ([…] in LNCaP-NE cells); format: cell-based
T1 construct: gene KCNMA1

[2] = target: T1, BK channel (large-conductance Ca2+-activated K+ channel, BKCa, KCa1.1); experiment: whole-cell patch clamp of endogenous BK current in LNCaP cells; current identity confirmed by si-hBK; format: cell-based

T1 sequence (Q12791 whole entry): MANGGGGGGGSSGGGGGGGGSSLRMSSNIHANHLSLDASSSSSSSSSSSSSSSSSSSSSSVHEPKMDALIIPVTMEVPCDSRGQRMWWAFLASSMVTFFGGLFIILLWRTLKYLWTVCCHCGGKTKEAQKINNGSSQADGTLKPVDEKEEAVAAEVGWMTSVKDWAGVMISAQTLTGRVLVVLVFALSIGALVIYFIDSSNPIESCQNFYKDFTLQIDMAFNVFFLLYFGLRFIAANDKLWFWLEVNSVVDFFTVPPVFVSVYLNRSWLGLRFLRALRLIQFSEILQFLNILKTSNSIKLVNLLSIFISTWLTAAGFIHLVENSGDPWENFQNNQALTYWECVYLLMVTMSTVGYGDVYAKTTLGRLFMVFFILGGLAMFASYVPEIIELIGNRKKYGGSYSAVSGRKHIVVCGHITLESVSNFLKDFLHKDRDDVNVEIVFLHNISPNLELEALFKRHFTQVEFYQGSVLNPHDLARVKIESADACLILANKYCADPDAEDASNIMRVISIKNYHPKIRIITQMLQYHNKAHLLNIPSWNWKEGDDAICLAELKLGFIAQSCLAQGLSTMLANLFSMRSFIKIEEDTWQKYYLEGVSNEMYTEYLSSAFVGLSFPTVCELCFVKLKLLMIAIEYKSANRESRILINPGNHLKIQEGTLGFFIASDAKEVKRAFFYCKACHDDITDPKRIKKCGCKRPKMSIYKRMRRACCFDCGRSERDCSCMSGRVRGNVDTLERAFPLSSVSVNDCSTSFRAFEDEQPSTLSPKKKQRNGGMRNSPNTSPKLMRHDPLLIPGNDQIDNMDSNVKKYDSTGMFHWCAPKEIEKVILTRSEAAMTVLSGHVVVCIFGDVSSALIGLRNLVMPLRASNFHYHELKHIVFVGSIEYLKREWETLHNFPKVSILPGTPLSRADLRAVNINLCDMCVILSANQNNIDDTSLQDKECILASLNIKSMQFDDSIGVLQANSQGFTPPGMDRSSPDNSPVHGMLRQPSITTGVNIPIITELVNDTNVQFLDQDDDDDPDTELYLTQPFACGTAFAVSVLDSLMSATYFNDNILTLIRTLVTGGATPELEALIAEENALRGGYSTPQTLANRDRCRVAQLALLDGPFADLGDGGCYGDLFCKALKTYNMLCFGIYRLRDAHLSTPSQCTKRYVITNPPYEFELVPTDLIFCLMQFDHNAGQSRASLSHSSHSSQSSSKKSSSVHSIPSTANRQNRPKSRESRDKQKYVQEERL

SMILES | IC50 [1] [µM] | whole-cell patch clamp of endogenous BK current in LNCaP cells; current identity [2] [µM]
CC[N+](CC)(CC)CC [TEA, tetraethyl ammonium] | 1140 ± 200 | –
CC(C)(O)[C@H]1O[C@H]2CC[C@@]3(C)[C@@](O)(CC[C@H]4Cc5c([nH]c6ccccc56)[C@@]43C)C2=CC1=O [Pax, paxillin] | – | 1
